How the values were obtained:
[1] = system: caspase-9; assay: Caspase-9 colorimetric assay, MCF-7; type: cell-based, human; details: MCF-7 cells
Protocol: (§1) Caspases-3, -8 and -9 assays were measured according to manufacturer’s instructions using a caspase colorimetric protease kit (Abcam, Cambridge, MA, USA). Cells were treated with compounds for 48 h. The cells were lysed by the addition of 50 μL of chilled cell lysis buffer and incubated on ice for 10 min. The resulting cell lysate was centrifuged for 1 min at 10,000 g, and the supernatant was collected. The cell lysate containing […] of protein was incubated with […] of 4 mmol/L pNA-conjugated substrates (DEVD-pNA, IETD-pNA and LEHD-pNA; substrates for caspase-3, -8 and -9, respectively) at 37 °C for 3 h. The amount of pNA released was measured at 405 nm using an ELISA microplate reader (Bio rad). The caspases activity was expressed as fold difference, [33].

[2] = system: MCF-7 cells; assay: Rhodamine-123 mitochondrial membrane potential assay, MCF-7; type: cell-based, human; details: 24 h
Protocol: [Worded in the source for another cell line; this cell line is reported under the same test.] Mitochondrial membrane potential changes (ΔΨm) were determined by flow cytometry using rhodamine-123 (green-fluorescent dye)[32]. MIA PaCa-2 pancreatic cancer cells (1 × 10^6 cells/well) were exposed to the isolated compound (5 µM) for 24 h. Further, rhodamine-123 (200 nM) was added to the cells, which were kept in dark for 35 min. The cells were further centrifuged and the pellet was washed with phosphate buffered saline (1 ml). The intensity of fluorescence in the cells represented the mitochondrial membrane potential change (ΔΨm), which was measured using a flow cytometer.

[3] = system: MCF-7 cancer cells; assay: Cell cycle analysis (PI, flow cytometry), MCF-7; type: cell-based, human; details: MCF-7 cells; 5 and 10 µM; 24 h
Protocol: Cancer cells (1 × 10^6/ml) were treated with different concentrations of compound (5 and10 µM) for 24 h, fixed in cold 70% alcohol in PBS, washed, digested with DNase free RNase (400 µg/mL) at 37 °C for 45 min and stained with propidium iodide (10 µg/ml). Cells were analyzed for PI-DNA fluorescence by flow cytometerically using FACS CALIBUR (Becton Dickinson, Franklin Lakes, New Jersey, USA)[28]–[30]. The fluorescence intensity of subG0/GI cell fraction represents the dead cell population.

[4] = system: MCF-7 breast cancer cells; assay: MTT antiproliferative assay, MCF-7; type: cell-based; details: Homo sapiens, MCF7; MTT assay; cancer cell line; mean of three independent experiments ± S.E.M.; read-out: IC50 MCF-7 Breast
[5] = system: MIA PaCa-2 pancreatic cancer cells; assay: MTT antiproliferative assay, MIA PaCa-2; type: cell-based; details: Homo sapiens, MIA PaCa-2; MTT assay; cancer cell line; mean of three independent experiments ± S.E.M.; read-out: IC50 MIA PaCa-2 Pancreatic
[6] = system: caspase-9; assay: Caspase-9 colorimetric assay, HL-60; type: cell-based, human; details: HL-60 cells
Protocol: as §1

[7] = system: human peripheral blood mononuclear cells (PBMC); assay: MTT assay on normal PBMC; type: cell-based; details: MTT assay, normal cells, 48 h, read-out: IC50 PBMC (normal cells)
[8] = system: caspase-8; assay: Caspase-8 colorimetric assay, MCF-7; type: cell-based, human; details: MCF-7 cells; data not showed
Protocol: as §1

[9] = system: CaCo-2 colon cancer cells; assay: MTT antiproliferative assay, CaCo-2; type: cell-based; details: Homo sapiens, Caco-2; MTT assay; cancer cell line; mean of three independent experiments ± S.E.M.; read-out: IC50 CaCo-2 Colon
[10] = system: HL-60 leukemia cells; assay: MTT antiproliferative assay, HL-60; type: cell-based, human
[11] = system: MCF-10A mammary epithelial cells; assay: MTT assay on normal MCF-10A cells; type: cell-based; details: Homo sapiens, MTT assay, normal cells, 48 h, read-out: IC50 MCF-10A Breast (normal cell line)
[12] = system: Bcl-2; assay: Quantification of Bcl-2 (ELISA), MCF-7; type: cell-based, human; details: MCF-7 cells; compared to untreated cells
Protocol: The intracellular content of Bcl-2 was quantified using the human Bcl-2 ELISA kit (Abcam, Cambridge, MA, USA). For the sample preparation, the cells were lysed with 1X lysis buffer. After 1 h of incubation at room temperature, the sample was spun at 1,000 g for 15 min and the supernatant was used for Bcl-2 measurement. Briefly, 80 μL of sample diluent and 20 μL of sample were added into the wells coated with monoclonal antibody to human Bcl-2, and after that the wells were washed twice with the wash buffer. Next, 50 μL of biotin-conjugate were added into the wells. After 2 h of incubation at room temperature on a microplate shaker, 100 μL of streptavidin-horseradish peroxidase were added. The sample was incubated again for 1 h at room temperature on a microplate shaker. The solution was withdrawn and the wells were washed with 3X wash buffer. Immediately, 100 μL of TMB substrate solution were added. Finally, 100 μL of stop solution were added into each well to stop the enzyme reaction. The absorbance was read using an ELISA reader at 450 and 620 nm wavelengths. Bcl-2 protein concentration was determined from the standard protein graphic using the optical densities of the samples[32].

[13] = system: cytosolic cytochrome c; assay: Cytosolic cytochrome c estimation (ELISA), MCF-7; type: cell-based, human; details: MCF-7 cells; 5, 10 µM
Protocol: Cells were collected by centrifugation at 600 g for 5 min at 4 °C. The cell pellets were washed once with ice-cold PBS and resuspended in cytosol extraction buffer (20 mM Hepes-KOH, pH 7.5, 10 mM KCl, 1.5 mM MgCl2, 1 mM sodium EDTA, 1 mM sodium EGTA, 1 mM dithiothreitol and 0.1 mM PMSF) containing 250 mM sucrose on ice for 10 min. The cells were homogenized with the grinder on ice. Further, the homogenates were centrifuged at 700 g for 10 min at 4 °C. The supernatants were centrifuged at 10,000 × g for 30 min at 4 °C. Supernatant was collected as cytosolic fraction.
Cytosolic cytochrome c levels were determined using quantitative sandwich enzyme immunoassay using microplate reader. Sample or standard (100 μL) was added into each well and incubated for 2 h at room temperature. The wells were washed several times with wash buffer. The plate was inverted and cleaned with paper toweling. Cytochrome c conjugate (200 μL) was added into each well and incubated for 2 h at room temperature. Wells were washed several times with wash buffer. Substrate solution (200 μL) was added into each well and incubated for 30 min at room temperature. Finally, stop solution (50 μL) was added into wells. The optical density (absorbance) of each well was determined using microplate reader at a 450 nm wavelength.

[14] = system: caspase-3; assay: Caspase-3 colorimetric assay, HL-60; type: cell-based, human; details: HL-60 cells
Protocol: as §1

COc1cc(CO)ccc1OC1OC(COC(=O)c2ccc(F)cc2)C(O)C(O)C1O (stereo not shown) [Compound 9f, (6-(4-(hydroxymethyl)-2-methoxyphenoxy)-tetrahydro-3,4,5-trihydroxy-2H-pyran-2-yl)methyl 4-fluorobenzoate]
effect on caspase-9 activity [1]: enhanced caspase-3 and -9 activities
mitochondria membrane potential loss ([2]; 5 µM): 41.33 ± 1.43%
mitochondria membrane potential loss ([2]; 10 µM): 52.67 ± 2.33%
effect on cell cycle distribution [3]: cell cycle arrest at G0/G1 phase
IC50 [4]: 6.13 ± 0.64 µM
IC50 [5]: 12.9 ± 0.52 µM
effect on caspase-9 activity [6]: enhanced caspase-3 and -9 activities
IC50 [7]: > 100 µM
effect on caspase-8 activity [8]: did not show considerable effect
IC50 [9]: 8.66 ± 0.72 µM
anti-proliferative effect at 24 h ([10]; HL-60 cells, 24 h, versus camptothecin (positive control)): better antiproliferative effect than camptothecin
IC50 ([10]; Homo sapiens, HL-60, MTT assay, cancer cell line, mean of three independent experiments ± S.E.M., read-out: IC50 HL-60 Leukemia): 4.43 ± 0.35 µM
IC50 [11]: > 100 µM
effect on Bcl-2 levels [12]: dose dependent inhibition of Bcl-2
effect on cytosolic cytochrome c levels [13]: dose dependently increased
effect on caspase-3 activity [14]: enhanced caspase-3 and -9 activities

Source: PMC5559490, “Synthesis of Saccharumoside-B analogue with potential of antiproliferative and pro-apoptotic activities” (Scientific Reports, 2017)
